Residues, ends and D or L forms follow the SMILES beside them.

Chain of h-mT1R2-471/mT1R3 (Q8TE23 with tags, fused parts or gaps with the stated changes limits assumed): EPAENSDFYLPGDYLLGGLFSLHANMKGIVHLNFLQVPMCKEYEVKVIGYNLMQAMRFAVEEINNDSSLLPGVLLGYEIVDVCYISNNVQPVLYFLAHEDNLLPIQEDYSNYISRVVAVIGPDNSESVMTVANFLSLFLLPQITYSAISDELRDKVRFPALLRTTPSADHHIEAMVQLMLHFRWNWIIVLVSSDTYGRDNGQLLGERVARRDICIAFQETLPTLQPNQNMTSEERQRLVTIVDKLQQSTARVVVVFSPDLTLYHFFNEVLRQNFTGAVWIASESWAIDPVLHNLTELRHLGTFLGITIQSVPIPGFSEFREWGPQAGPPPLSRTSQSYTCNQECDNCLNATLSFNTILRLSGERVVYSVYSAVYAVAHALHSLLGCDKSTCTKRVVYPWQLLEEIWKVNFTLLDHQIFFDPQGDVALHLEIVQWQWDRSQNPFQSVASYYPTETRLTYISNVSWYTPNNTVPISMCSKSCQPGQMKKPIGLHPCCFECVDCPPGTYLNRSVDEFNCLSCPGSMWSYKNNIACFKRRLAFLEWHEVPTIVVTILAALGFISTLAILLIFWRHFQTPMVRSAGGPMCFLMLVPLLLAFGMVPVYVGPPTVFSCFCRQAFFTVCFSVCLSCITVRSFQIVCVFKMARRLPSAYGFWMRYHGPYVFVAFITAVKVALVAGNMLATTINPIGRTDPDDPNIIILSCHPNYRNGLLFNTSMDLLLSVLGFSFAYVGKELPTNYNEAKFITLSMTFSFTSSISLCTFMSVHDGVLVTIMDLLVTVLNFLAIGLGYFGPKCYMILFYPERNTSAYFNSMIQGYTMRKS
Chain of h-mT1R2-471/mT1R3 (Q925D8 21-858, stated change not applied): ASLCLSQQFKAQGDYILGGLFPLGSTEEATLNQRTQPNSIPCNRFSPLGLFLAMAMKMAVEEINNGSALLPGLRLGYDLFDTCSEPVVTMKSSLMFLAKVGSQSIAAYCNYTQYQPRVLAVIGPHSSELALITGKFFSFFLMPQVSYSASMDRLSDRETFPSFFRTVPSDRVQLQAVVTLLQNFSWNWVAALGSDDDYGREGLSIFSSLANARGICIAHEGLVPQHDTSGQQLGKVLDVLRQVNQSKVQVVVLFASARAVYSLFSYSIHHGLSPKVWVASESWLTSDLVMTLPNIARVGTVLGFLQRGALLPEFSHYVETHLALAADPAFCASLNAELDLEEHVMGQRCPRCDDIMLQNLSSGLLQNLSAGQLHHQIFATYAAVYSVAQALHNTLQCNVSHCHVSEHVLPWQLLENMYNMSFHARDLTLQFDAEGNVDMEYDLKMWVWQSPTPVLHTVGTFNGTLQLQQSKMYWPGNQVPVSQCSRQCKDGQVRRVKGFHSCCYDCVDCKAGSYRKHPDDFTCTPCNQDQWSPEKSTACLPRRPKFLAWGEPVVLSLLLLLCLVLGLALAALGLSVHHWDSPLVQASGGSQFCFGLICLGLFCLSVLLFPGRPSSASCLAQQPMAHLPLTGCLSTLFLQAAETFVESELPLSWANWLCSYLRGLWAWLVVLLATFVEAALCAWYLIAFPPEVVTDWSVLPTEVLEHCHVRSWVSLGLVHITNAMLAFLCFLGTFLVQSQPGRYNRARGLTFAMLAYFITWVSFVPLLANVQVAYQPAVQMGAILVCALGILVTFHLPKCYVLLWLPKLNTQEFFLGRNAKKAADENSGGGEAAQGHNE

The target of the assay is h-mT1R2-471/mT1R3 (UniProt Q8TE23+Q925D8, A537S/A564V/A568V/A570T/A649T/A658V/A782V/D480N/E530V/E534N/E542M/E548N/F525Y/F665L/G696N/G701T/H484Y/H528R/I481V/I486P/I490V/I510L/I518V/I595M/I643V/I645L/I692L/I695G/K476T/K504M/K626T/K714N/L471T/L521P/L571I/L578I/L610P/L631F/L636F/L639V/L688V/L702I/L734M/L800F/M492I/M616G/M682V/M690V/M748V/N477Y/N540G/N541S/N721H/P638T/P824S/Q472E/Q474R/Q479S/Q536L/Q546K/Q555R/Q676H/R473T/R498S/R667S/S501P/S547N/S550A/S628F/S663R/S670G/S681F/S703N/S727G/S784D/S804G/T529S/T549I/T609V/T629S/T642S/T705I/T706G/T716I/V508I/V512P/V557A/V585L/V613L/V617M/V673M/V687A/V691A/V694A/V718L/V741L/V774I/V791M/Y533F/Y615F/Y671F/Y769S/Y783H). The following applies: Table 4; genes h-mT471/mT3 (h-mT1R2-471, mT1R3); HEK293E cells. The procedure:
The HEK293E cells maintained by using the DMEM/Ham's F-12 medium (Nakarai Tesque) containing 10% fetal bovine serum ([…]) and 1% Pen Strep (GIBCO) were washed with D-PBS(−) (Nakarai Tesque), and collected from the flask by using 0.25% Trypsin EDTA (GIBCO). The cells were centrifuged (1,200 rpm, 3 minutes), and after the supernatant was removed, suspended in 5% FBS DMEM/Ham's F-12 at a density of 0.75×10^7 cell/ml. This suspension (10 ml) was put into a […] (IWAKI), and culture was performed overnight (37° C., 5% CO2). On the next day, the medium was exchanged with Opti-MEM (30 ml, Invitrogen, Life Technologies), a sweet taste receptor gene mixture (Gα15-trans48LD gene, various kinds of T1R2 chimeric genes, and various kinds of T1R3 chimeric genes, 63.8 μg in total) prepared by using Opti-MEM and Lipofectamin 2000 (Invitrogen, Life Technologies) was slowly added to the cell suspension, and incubation was performed (37° C., 5% CO2) for 6 hours to attain gene transfer.
After the gene transfer, the cells were washed with D-PBS(−), then removed from the flask by using 0.25% Trypsin EDTA (GIBCO), and collected. After the cell number was counted, the cells were suspended in the 5% FBS DMEM medium (2.78 mM glucose, GIBCO) at a density of 0.5×10^6 cell/ml. This cell suspension was put into wells of D-Lysine coat 96-well plate (BD bioscience) in such a volume that the cell count is 7.0×10^4 cells/well, and the cells were cultured overnight.
After the culture, all the medium of the 96 wells were discarded. 200 μl of the staining solution for measurement of intracellular calcium ion′ Calcium Assay Kit Express (Molecular Device), diluted 80 times with an assay buffer (20 mM HEPES, 146 mM NaCl, 1 mM MgSO4, 1.39 mM glucose, 1 mM CaC12, 2.5 mM Probenecid, 0.05% bovine serum albumin) was added to each well, and the plate was left standing at 37° C. for 30 minutes and at room temperature for 45 minutes to perform staining. After the staining, 50 μl of a solution of stimulant (sweet taste substance) prepared with the assay buffer was added to each well, and the fluorescence value was measured for 120 seconds after the stimulation by using FDSSμEELL (Hamamatsu Photonics). By measuring the fluorescence value (Ex. 480 nm, Em. 540 nm) before and after the stimulation, the change of the intracellular free calcium ion concentration caused by addition of the stimulant via a sweet taste receptor was quantitatively investigated. The measurement and analysis of the fluorescence value was performed by using the software attached to FDSSμEELL (FDSS7000EX), and ΔF/F value was calculated in accordance with the following equation, and used for the evaluation. ΔF/F=(Maximum fluorescence value after stimulation−Minimum fluorescence value after stimulation)/(Fluorescence value before stimulation)
Furthermore, by using the ΔF/F values obtained when each sweet taste substance was added, the S/N ratio was calculated. Specifically, the S/N value was calculated by using the minimum value of ΔF/F obtained when each substance was added at various concentrations as noise (N) value, and the similarly obtained maximum value of ΔF/F as the signal (S) value, and used as an index for sensitivity of the measurement of the activity of each receptor. That is, a higher S/N value means a higher sensitivity for detection of an interaction of a sweet taste receptor and a test substance, which makes it easier to detect stimulation with a sweet taste substance or sweet taste-regulating substance of a lower concentration.
The sweet taste substances used as the stimulating substance are acesulfame potassium (Tokyo Kasei Kogyo), sodium saccharin (WAKO), sucralose (SIGMA), sucrose (WAKO), and neotame (SIGMA), as well as aspartame, advantame, and SC-45647 ([3-[(S)-1-phenylethyl]-2-(4-cyanophenyl)guanidino]acetic acid, which were all synthesized in-house.
In the case of `CC1=CC(=O)NS(=O)(=O)O1` [Acesulfame K, acesulfame potassium], the S/N came to 3.1.
As for `COC(=O)[C@H](Cc1ccccc1)NC(=O)[C@H](CC(=O)O)NCCCc1ccc(OC)c(O)c1` [Advantame, advantame], the figure is 5.5.
As for `COC(=O)[C@H](Cc1ccccc1)NC(=O)[C@@H](N)CC(=O)O` [Aspartame, aspartame] (HELM PEPTIDE1{D.F.[CO[*:1]]}$$$$V2.0), the figure is 4.6; as for `COC(=O)[C@H](Cc1ccccc1)NC(=O)[C@H](CC(=O)O)NCCC(C)(C)C` [Neotame, neotame], 4.4.
As for `C[C@H](NC(=Nc1ccc(C#N)cc1)NCC(=O)O)c1ccccc1` [SC-45647, [3-[(S)-1-phenylethyl]-2-(4-cyanophenyl)guanidino]acetic acid], the figure is 4.2; as for `O=C1NS(=O)(=O)c2ccccc21.[Na]` [Saccharin Na, sodium saccharin], 3.6.
In turn, `OC[C@H]1O[C@H](O[C@]2(CCl)O[C@H](CCl)[C@@H](O)[C@@H]2O)[C@H](O)[C@@H](O)[C@H]1Cl` [Sucralose, sucralose] came in with a S/N of 4.6.
In turn, `OC[C@H]1O[C@@](CO)(O[C@H]2O[C@H](CO)[C@@H](O)[C@H](O)[C@H]2O)[C@@H](O)[C@@H]1O` [Sucrose, sucrose] displayed a S/N of 3.5.

(Values after patent US9341616B2, “Sweet taste receptor chimeric proteins and use thereof” (AJINOMOTO CO., INC., priority 2014, dated 2016).)
